Measured values from patent US8946446B2, “Pyrrolo sulfonamide compounds for modulation of orphan nuclear receptor RAR-related orphan receptor-γ (ROR-γ, NR1F3) activity and for the treatment of chronic inflammatory and autoimmune diseases” (Phenex Pharmaceuticals AG, priority 2011, dated 2015).

Biological target: T1, RORγ ligand binding domain (LBD) (Homo sapiens, UniProt P51449)
T1 construct: made in house; host or cells: E. coli BL-21 (BL3), vector pDEST15
T1 sequence (P51449 269-508 limits assumed): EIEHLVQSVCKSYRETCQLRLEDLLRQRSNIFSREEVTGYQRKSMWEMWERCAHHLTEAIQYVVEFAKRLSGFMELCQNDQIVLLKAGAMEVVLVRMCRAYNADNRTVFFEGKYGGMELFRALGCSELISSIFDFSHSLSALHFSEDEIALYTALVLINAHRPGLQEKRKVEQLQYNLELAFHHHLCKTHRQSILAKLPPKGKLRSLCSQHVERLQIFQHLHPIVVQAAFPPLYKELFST
Experiment: TR-FRET Activity Assay (ligand sensing, RORγ-LBD / coactivator peptide interaction)
Assay type: biochemical
Details: not given
Excerpt: This method measures the ability of putative ligands to modulate the interaction between the purified bacterial expressed RORγ ligand binding domain (LBD) and synthetic N-terminally biotinylated peptides which are derived from nuclear receptor coactivator proteins such as but not limited to SRC1 (NcoA1), SRC2 (NcoA2, TIF2), SRC3 (NcoA3), PGC1α, PGC1β, CBP, GRIP1, TRAP220, RIP140.
The ligand-binding domain (LBD) of RORγ was expressed as fusion protein with GST in […] cells using the vector pDEST15. Cells were lysed by lysozyme-treatment and sonication, and the fusion proteins purified over glutathione sepharose (Pharmacia) according to the manufacturers instructions. For screening of compounds for their influence on the RORγ-peptide interaction, the LANCE technology (Perkin Elmer) was applied. This method relies on the binding dependent energy transfer from a donor to an acceptor fluorophor attached to the binding partner of interest. For ease of handling and reduction of background from compound fluorescence LANCE technology makes use of generic fluorophore labels and time resolved detection assays were done in a final volume of 25 μL in a 384 well plate, in a Tris-based buffer system (20 mM Tris-HCl pH6.8; 60 mM KCl, 1 mM DTT; 5 mM MgCl2; 35 ng/μL BSA), containing 20-60 ng/well recombinantly expressed RORγ-LBD fused to GST, 200-600 nM N-terminally biotinylated peptide, 200 ng/well Streptavidin-xIAPC conjugate (Prozyme) and 6-10 ng/well Eu W1024-antiGST (Perkin Elmer). DMSO content of the samples was kept at 1%.
After generation of the Tris-based buffer system, the potentially RORγ modulating ligands were diluted. […] The LANCE signal was detected by a Perkin Elmer EnVision™ Multilabel Counter. The results were visualized by plotting the ratio between the emitted light at 665 nm and 615 nm. […] Ligands that promote the complex formation induce a concentration-dependent increase in time-resolved fluorescent signal.
The normalised TR-FRET assay values, using the following equation: 1000*665 nm measurement value/615 nm measurement value, were transferred to the program GraphPad Prism to generate graphs and dose response curves using the following equation:
Equation: Sigmoidal Dose-Response (Variable Slope) Y=Bottom+(Top-Bottom)/(1+10^((LogEC50−X)*HillSlope)) X is the logarithm of the concentration. Y is the response. Y starts at Bottom and goes to Top with a sigmoidal shape.
This is identical to the “four parameter logistic equation”. The IC50 values are calculated using this equation.

Compound	IC50
Cc1c(S(N)(=O)=O)cc(-c2cc(C(C)(C)C)cc(S(=O)(=O)N(C)C(C)(C)C)c2)n1CC1CCCCC1 [22/4]	0.5 to 2 µM
Cc1c(S(N)(=O)=O)cc(-c2cc(C(C)(C)C)cc(C(C)(C)C)c2)n1CC1CCCCO1 (stereo not shown) [1/21]	0.5 to 2 µM
CC(=NO)c1cc(-c2cc(S(N)(=O)=O)c(C)n2CC2CCCCC2)cc(C(C)(C)C)c1 [Example 6, 5-(3-(tert-Butyl)-5-(1-(hydroxyimino)ethyl)phenyl)-1-(cyclohexylmethyl)-2-methyl-1H-pyrrole-3-sulfonamide]	0.5 to 2 µM

Same assay, conditions: read-out: RORγ activity in the TR-FRET Activity Assay (IC50 FRET), Group

Compound	IC50
Cc1c(S(N)(=O)=O)cc(-c2cc(C(=O)NC(C)(C)C)nc(C(C)(C)C)c2)n1CC1CCCCC1 [Example 20, N,6-Di-tert-butyl-4-(1-(cyclohexylmethyl)-5-methyl-4-sulfamoyl-1H-pyrrol-2-yl)picolinamide]	0.5 to 2 µM
Cc1c(S(N)(=O)=O)cc(-c2cccc(N3CCCC3)c2)n1CC1CCCCC1 [1/14]	> 2 µM
CC(=O)c1cc(-c2cc(S(N)(=O)=O)c(C)n2CC2CCCCC2)cc(C(C)(C)C)c1 [12/27]	> 2 µM
Cc1c(S(=O)(=O)NC2CCCC2)cc(-c2cc(C(C)(C)C)cc(C(C)(C)C)c2)n1CC1CCCCC1 [2/4]	0.5 to 2 µM
CC(C)(C)c1cc(-c2c(Cl)c(S(N)(=O)=O)c(Cl)n2CC2CCCCC2)cc(C(C)(C)C)c1 [Example 30, 2,4-Dichloro-1-(cyclohexylmethyl)-5-(3,5-di-tert-butylphenyl)-1H-pyrrole-3-sulfonamide]	0.5 to 2 µM
Cc1c(S(N)(=O)=O)cc(-c2ccc(S(=O)(=O)N3CCCCC3(C)C)c(C(F)(F)F)c2)n1CC1CCCCC1 [22/9]	0.5 to 2 µM
Cc1c(S(N)(=O)=O)cc(-c2cn(S(=O)(=O)c3ccccc3)c3ccccc23)n1CC1CCCCC1 [1/19]	0.5 to 2 µM
Cc1c(S(N)(=O)=O)cc(-c2cc(C(C)(C)C)cc(C(C)(C)CN)c2)n1CC1CCCCC1 [Example 48, 5-(3-(1-Amino-2-methylpropan-2-yl)-5-(tert-butyl)phenyl)-1-(cyclohexyl-methyl)-2-methyl-1H-pyrrole-3-sulfonamide]	> 2 µM
Cc1c(S(=O)(=O)NCC2COCCN2C)cc(-c2cc(C(C)(C)C)cc(C(C)(C)C)c2)n1CC1CCCCC1 (stereo not shown) [5/11]	0.5 to 2 µM
CNC(=O)COc1c(C(C)(C)C)cc(-c2cc(S(N)(=O)=O)c(C)n2CC2CCCCC2)cc1C(C)(C)C [16/10]	> 2 µM
Cc1c(S(N)(=O)=O)cc(-c2ccc(S(=O)(=O)N3CCC3(C)C)c(C(C)(C)C)c2)n1CC1CCCCC1 [1/24]	< 0.5 µM
CCOc1cc(-c2cc(S(N)(=O)=O)c(C)n2CC2CCCCC2)cc(C(C)(C)C)n1 [17/2]	0.5 to 2 µM
COCCOc1cc(-c2cc(S(N)(=O)=O)c(C)n2CC2CCCCC2)cc(C(C)(C)C)n1 [17/4]	0.5 to 2 µM
Cc1c(S(=O)(=O)NCc2nc(C(=O)O)co2)cc(-c2cc(C(C)(C)C)cc(C(C)(C)C)c2)n1CC1CCCCC1 [5/5]	0.5 to 2 µM
Cc1c(S(N)(=O)=O)cc(-c2cc(C(C)(C)C)cc(C(C)(C)C(=O)O)c2)n1CC1CCCCC1 [Example 46, 2-(3-(tert-Butyl)-5-(1-(cyclohexylmethyl)-5-methyl-4-sulfamoyl-1H-pyrrol-2-yl)phenyl)-2-methylpropanoic acid]	> 2 µM
Cc1c(S(N)(=O)=O)cc(-c2cc(C(C)(C)C)cc(C(C)(C)C)c2)n1CCC1CCCC1 [1/22]	< 0.5 µM
Cc1c(S(N)(=O)=O)cc(-c2cc(C(C)(C)C)cc(C(C)(C)CF)c2)n1CC1CCCCC1 [12/26]	> 2 µM
Cc1c(S(N)(=O)=O)cc(-c2cc(C(=O)NCC(C)C)cc(C(C)(C)C)c2)n1CC1CCCCC1 [Example 13, 3-(tert-Butyl)-5-(1-(cyclohexylmethyl)-5-methyl-4-sulfamoyl-1H-pyrrol-2-yl)-N-isobutylbenzamide]	0.5 to 2 µM
Cc1c(S(=O)(=O)NC2CCC2)cc(-c2cc(C(C)(C)C)cc(C(C)(C)C)c2)n1CC1CCCCC1 [2/3]	0.5 to 2 µM
Cc1c(S(N)(=O)=O)cc(-c2cc(C(C)(C)C)cc(C(C)(C)C)c2)n1CC1CCC1 [1/39]	0.5 to 2 µM

Compound	IC50
Cc1c(S(N)(=O)=O)cc(-c2cc3c(c(C(C)(C)C)c2)OCCC3=O)n1CC1CCCCC1 [12/28]	0.5 to 2 µM
Cc1c(S(N)(=O)=O)cc(-c2cc(C3(C)CC3)cc(C3(C)CC3)c2)n1CC1CCCCC1 [12/40]	< 0.5 µM
Cc1c(S(N)(=O)=O)c(C)n(CC2CCCCC2)c1-c1cc(C(C)(C)C)cc(C(C)(C)C)c1 [12/8]	0.5 to 2 µM
Cc1c(S(N)(=O)=O)cc(-c2cc3c(c(C(C)(C)C)c2)OCCC3=NO)n1CC1CCCCC1 [Example 6/1, 5-(8-(tert-Butyl)-4-(hydroxyimino)chroman-6-yl)-1-(cyclohexylmethyl)-2-methyl-1H-pyrrole-3-sulfonamide]	> 2 µM
Cc1c(S(N)(=O)=O)cc(-c2cc3c(c(C(C)(C)C)c2)OCC(=O)N3C)n1CC1CCCCC1 [12/9]	> 2 µM
Cc1c(S(N)(=O)=O)cc(-c2ccc(N3CCOCC3=O)c(C(C)(C)C)c2)n1CC1CCCCC1 [12/35]	> 2 µM
Cc1c(S(N)(=O)=O)cc(-c2cc(C(=O)NC(C)(C)C)cc(C(F)(F)F)c2)n1CC1CCCCC1 [13/13]	0.5 to 2 µM
Cc1c(S(N)(=O)=O)cc(-c2cc(C(F)(F)F)c(=O)n(CC(C)(C)C)c2)n1CC1CCCCC1 [Example 34, 1-(Cyclohexylmethyl)-2-methyl-5-(1-neopentyl-6-oxo-5-(trifluoromethyl)-1,6-dihydropyridin-3-yl)-1H-pyrrole-3-sulfonamide]	> 2 µM
Cc1c(S(N)(=O)=O)cc(-c2cc(C(C)(C)C)c(F)c(C(C)(C)C)c2)n1CC1CCCCC1 [12/39]	< 0.5 µM
COCCOc1c(C(C)(C)C)cc(-c2cc(S(N)(=O)=O)c(C)n2CC2CCCCC2)cc1C(C)(C)C [16/11]	0.5 to 2 µM
Cc1c(S(N)(=O)=O)cc(-c2cccc(S(=O)(=O)N(C)C(C)(C)C)c2)n1CC1CCCCC1 [1/17]	> 2 µM
Cc1c(S(=O)(=O)NCCC(N)=O)c(Cl)c(-c2cc(C(C)(C)C)cc(C(C)(C)C)c2)n1CC1CCCCC1 [Example 41, 3-(4-chloro-1-(cyclohexylmethyl)-5-(3,5-di-tert-butylphenyl)-2-methyl-1H-pyrrole-3-sulfonamido)propanamide]	< 0.5 µM
Cc1c(S(N)(=O)=O)cc(-c2ccc(S(=O)(=O)N3CCCCC3)c(C(C)(C)C)c2)n1CC1CCCCC1 [1/25]	< 0.5 µM
Cc1c(S(N)(=O)=O)cc(-c2ccc3c(c2)C(C)(C)CN(C(C)C)S3(=O)=O)n1CC1CCCCC1 [12/18]	> 2 µM
Cc1c(S(=O)(=O)NCCO)cc(-c2cc(C(C)(C)C)cc(C(C)(C)C)c2)n1CC1CCCCC1 [2/2]	< 0.5 µM
Cc1c(S(N)(=O)=O)cc(-c2cn(S(=O)(=O)N(C)C(C)(C)C)c3ccccc23)n1CC1CCCCC1 [1/31]	< 0.5 µM
Cc1c(S(N)(=O)=O)cc(-c2ccc(S(=O)(=O)N3CCCC(C)C3)c(C(C)(C)C)c2)n1CC1CCCCC1 (stereo not shown) [1/27]	< 0.5 µM
Cc1c(S(N)(=O)=O)cc(-c2cc(C(C)(C)C)cc(C(C)(C)C)c2)n1CC1CCOCC1 [1/20]	> 2 µM
Cc1c(S(=O)(=O)NCC(C)(C)C(=O)O)cc(-c2cc(C(C)(C)C)cc(C3(C)CC3)c2)n1CC1CCCCC1 [11/1]	> 2 µM
Cc1c(S(N)(=O)=O)cc(-c2ccc(S(=O)(=O)N3CCC(C)CC3)c(C(C)(C)C)c2)n1CC1CCCCC1 [1/26]	0.5 to 2 µM
